Reference: US20250127937A1, “FAP INHIBITOR” (UNIVERSITÄT HEIDELBERG, priority 2018, published 2025)

What was measured:
[1] = Blood pool clearance from SUVmean of the heart; format: in vivo
Source text: The calculated plateau values, which were higher for Ga-68 labeled FAPI-13, -21, -36 and AlF-18 labeled FAPI-74 theoretically correspond to a higher fraction of compound which is not cleared due to unspecific binding or by remaining in circulating (Table 12).

[2] = Preliminary dosimetry estimate in patients; format: in vivo, human
[3] = tested on: HT-1080-FAP cells; assay: Efflux experiments in HT-1080-FAP cells; format: cell-based, human; conditions: after 24 h in compound-free medium
Description: Radioligand binding studies were performed using HT-1080-FAP cells. The radiolabeled compound was added to the cell culture and incubated for different time intervals ranging from 10 min to 24 h. Competition experiments were performed by simultaneous exposure to unlabeled (10^−5 M to 10^−9M) and radiolabeled compound for 60 min. For efflux experiments, radioactive medium was removed after incubation for 60 min and replaced by non-radioactive medium for time intervals ranging from 1 to 24 h. For internalization experiments, surface bound activity was removed by incubating the cells with 1 M glycine-HCl buffer for 10 min. The radioactivity was measured using a γ-counter, normalized to 1 mio cells and calculated as percentage of applied dose (% ID).
For radioligand binding studies, cells were seeded in 6-well plates and cultivated for 48 h to a final confluence of approx. 80-90% (1.2-2 mio cells/well). The medium was replaced by 1 mL fresh medium without fetal calf serum. The radiolabeled compound was added to the cell culture and incubated for different time intervals ranging from 10 min to 24 h. Competition experiments were performed by simultaneous exposure to unlabeled (10^−5 M to 10^−9 M) and radiolabeled compound for 60 min. For efflux experiments, radioactive medium was removed after incubation for 60 min and replaced by non-radioactive medium for time intervals ranging from 1 to 24 h. In all experiments, the cells were washed with 1 mL phosphate-buffered saline pH 7.4 for 2 times and subsequently lysed with 1.4 ml lysis buffer (0.3 M NaOH, 0.2% SDS). Radioactivity was determined in a γ-counter (Cobra II, Packard), normalized to 1 mio cells and calculated as percentage of the applied dose (% ID). Each experiment was performed 3 times, and 3 repetitions per independent experiment were acquired.

[4] = tested on: tumor lesions and normal tissue of cancer patients; assay: Clinical PET/CT imaging in cancer patients (SUV); format: in vivo, human
Description: Diagnostic imaging of more than 100 patients was performed under the conditions of the updated declaration of Helsinki, § 37 (Unproven interventions in clinical practice) and in accordance to the German Pharmaceuticals Law § 13 (2b) for medical reasons using either ^68Ga-FAPI-02 or -04, which was applied intravenously (20 nmol, 122-336 MBq), 10 min, 1 and 3 hours post tracer administration. Variation of injected radiotracer activity is due to the short half-life of ^68Ga and the variable elution efficiencies obtained during the lifetime of the ^68Ge/^68Ga generator. […] The PET/CT scans were performed with a Biograph mCT Flow™ PET/CT-Scanner (Siemens Medical Solution) using the following parameters: slice thickness of 5 mm, increment of 3-4 mm, soft-tissue reconstruction kernel, care dose. Immediately after CT scanning, a whole-body PET was acquired in 3D (matrix 200×200) in FlowMotion™ with 0.7 cm/min. The emission data were corrected for random, scatter and decay. Reconstruction was conducted with an ordered subset expectation maximisation (OSEM) algorithm with 2 iterations/21 subsets and Gauss-filtered to a transaxial resolution of 5 mm at full-width half-maximum (FWHM). Attenuation correction was performed using the low-dose non-enhanced CT data. The quantitative assessment of standardized uptake values (SUV) was done using a region of interest technique.
For the normal tissue of 16 organs, a 2 cm Spheric-VOI was placed in the parenchyma, for tumor lesions a threshold segmented VOI was used to quantify SUVmean/max^3.

[5] = target: recombinant human FAP protein (Homo sapiens (Human), UniProt Q12884); assay: Enzyme inhibition assay with fluorogenic substrate Z-GP-AMC; format: biochemical; conditions: 0-1000 nM/well, 30 min at 37° C.
recombinant human FAP protein, sequence (Q12884 whole entry): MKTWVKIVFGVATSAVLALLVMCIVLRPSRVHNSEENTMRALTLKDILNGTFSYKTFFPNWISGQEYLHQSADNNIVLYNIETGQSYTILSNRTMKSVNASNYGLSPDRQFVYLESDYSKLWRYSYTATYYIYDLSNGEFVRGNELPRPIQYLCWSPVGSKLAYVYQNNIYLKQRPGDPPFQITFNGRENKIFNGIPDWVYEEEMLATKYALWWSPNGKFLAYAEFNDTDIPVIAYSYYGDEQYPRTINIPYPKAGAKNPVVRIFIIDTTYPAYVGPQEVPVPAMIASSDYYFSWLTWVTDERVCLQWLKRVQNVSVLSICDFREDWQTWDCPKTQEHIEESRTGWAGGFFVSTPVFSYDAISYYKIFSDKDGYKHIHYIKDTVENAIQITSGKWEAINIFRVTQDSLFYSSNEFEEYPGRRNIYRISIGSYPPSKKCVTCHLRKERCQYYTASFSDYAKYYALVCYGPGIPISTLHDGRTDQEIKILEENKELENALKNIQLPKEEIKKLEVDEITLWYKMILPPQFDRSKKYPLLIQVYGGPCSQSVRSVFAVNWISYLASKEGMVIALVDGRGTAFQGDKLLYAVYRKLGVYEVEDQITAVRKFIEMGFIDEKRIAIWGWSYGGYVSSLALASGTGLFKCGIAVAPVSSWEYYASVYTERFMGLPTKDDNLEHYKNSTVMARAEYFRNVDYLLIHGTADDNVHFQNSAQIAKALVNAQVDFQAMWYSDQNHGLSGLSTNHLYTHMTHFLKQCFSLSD

[6] = tested on: HT-1080-FAP tumor xenografts; assay: Organ distribution ex vivo in HT-1080-FAP tumor bearing nude mice; parameters: species or system mouse
Description: For in vivo experiments, 8 week old BALB/c nu/nu mice (Charles River) were subcutaneously inoculated into the right trunk with 5×10^6 with HT-1080-FAP, Capan-2 or SK-LMS-1 cells, respectively. When the size of the tumor reached approximately 1 cm^3, the radiolabeled compound was injected via the tail vein (˜10 MBq for small-animal PET imaging; ˜1 MBq for organ distribution). PET imaging was performed up to 140 min after intravenous injection of 1 MBq of Ga-68 labeled compound per mouse using the Inveon PET small-animal PET scanner (Siemens). Images were reconstructed iteratively using the 3D-OSEM+MAP method and were converted to standardized uptake value (SUV) images. Quantification was done using a ROI technique and expressed as SUV mean. For organ distribution of Lu-177 labeled compound (approx. […] per mouse), the animals (n=3 for each time point) were sacrificed after indicated time points (from 30 min to 24 h). The distributed radioactivity was measured in all dissected organs and in blood using a γ-counter (Cobra Autogamma, Packard). The values are expressed as percentage of injected dose per gram of tissue (% ID/g).

[7] = Lu-177 labeled, 1 h after i.v., HT-1080-FAP, mean ± SD, n = 3

SMILES: N#C[C@@H]1CC(F)(F)CN1C(=O)CNC(=O)c1ccnc2ccc(OCCCN3CCN(C(=O)CN4CCN(CC(=O)O)CCN(CC(=O)O)CCN(CC(=O)O)CC4)CC3)cc12 [FAPI-04]
- Plateau value (SUVmean) ([1]; hypothetical plateau, two phase exponential decay of heart SUVmean): 0.21
- Blood pool-clearence (T1/2 [min]) ([1]; rate determining half-life, two phase exponential decay of heart SUVmean 0.375-60 min): 7.1 min
- equivalent dose of an exam ([2]; 200 MBq Ga-68): 3-4 mSv
- effective dose ([2]; calculated with IDAC1/ICRP60): 1.66E-02 mSv/MBq
- effective dose ([2]; calculated with IDAC2/ICRP103): 1.35E-02 mSv/MBq
- effective dose ([2]; calculated with OLINDA): 1.64E-02 mSv/MBq
- retention of the originally accumulated radioactivity (efflux) [3]: 49%
- maximum SUV values in primary tumor, lymph node and bone metastases ([4]; 68Ga labeled, 1 h after i.v. administration, patients): ≤ 48.0
- background activity (SUV) ([4]; 68Ga labeled, 1 h p.i.): 2
- average SUVmax, lowest uptake group ([4]; 68Ga labeled, 1 h p.i., renal cell, differentiated thyroid, adenoid-cystic, gastric carcinoma, pheochromocytoma): < 6
- average SUVmax, highest uptake group ([4]; 68Ga labeled, 1 h p.i., sarcoma, esophageal, breast, cholangiocellular carcinoma, lung cancer): > 12
- decrease of tumor uptake (washout) ([4]; from 1 h to 3 h p.i., patients): 50%
- inhibition of enzymatic FAP activity [5]: robust, dose-dependent FAP inhibition
- highest enrichment within the FAP-expressing tumor ([6]; 177Lu labeled, after 2 h): 5.4 % ID/g
- Tumor uptake 1 h ([6]; HT-1080-FAP tumor bearing nude mice, 1 h, mean ± SD, n = 3): 4.9 ± 0.82 % ID/g
- Tumor uptake 4 h ([6]; HT-1080-FAP tumor bearing nude mice, 4 h, mean ± SD, n = 3): 5.4 ± 1.51 % ID/g
- Tumor uptake 24 h ([6]; HT-1080-FAP tumor bearing nude mice, 24 h, mean ± SD, n = 3): 3.0 ± 0.23 % ID/g
- Blood uptake [6, 7]: 1.70 ± 0.206 % ID/g
- Brain uptake [6, 7]: 0.08 ± 0.010 % ID/g
- Heart uptake [6, 7]: 0.80 ± 0.089 % ID/g
- Intestines uptake [6, 7]: 0.66 ± 0.196 % ID/g
- Kidneys uptake [6, 7]: 2.28 ± 0.477 % ID/g
- Liver uptake [6, 7]: 0.73 ± 0.118 % ID/g
- Lungs uptake [6, 7]: 1.50 ± 0.151 % ID/g
- Muscle uptake [6, 7]: 0.92 ± 0.020 % ID/g
- Spleen uptake [6, 7]: 0.48 ± 0.072 % ID/g
- Tumor uptake [6, 7]: 4.89 ± 0.817 % ID/g
